Test results from patent US6071966A, “1-amino-alkylcyclohexane NMDA receptor antagonists” (Merz + Co. GmbH & Co., priority 1998, dated 2000).
pIC50: −log10 of the molar value.

Legend:
cortical neurones = assay: Excitotoxicity: glutamate toxicity in cultured cortical neurones (MTT test); format: cell-based, rat; settings: words
Experimental: Cortical neurones were obtained from cerebral cortices of 17/18 day old fetal rats (Wistar), in general following the dissociation procedure described by. After short trypsinization and gentle trituration with fire-polished Pasteur pipettes, the cell suspension was washed by centrifugation. Cells were suspended in serum-free Neurobasal medium with B27 supplement (GIBCO) before plating onto poly-L-lysine (Sigma; 0.2mg/ml, 20 h, 4° C.) and laminin (Sigma; 2 μg/ml, 1h, 37° C.)-coated 96-well plates (Falcon, Primaria) at a density of 5×10^4 cells/well. Cortical neurones were maintained at 37° C. in humidified 10% CO2 /90% air. […]
Exposure to EAA was performed in serum-free Neurobasal medium containing 100 μM glutamate and the drug to be tested. After 20 h of incubation, the cytotoxic effect was morphologically examined under a phase contrast microscope and biochemically quantified by measuring cell viability with the MTT test (Promega). […] These samples were then read using an Elisa plate reader (Thermomax, MWG Biotech) at a wavelength of 570 nm. […]
IC50 s in patch clamp, excitotoxicity, and binding studies were calculated according to the four parameter alogistic equation using the Grafit computer program (Erithacus Software, England). Ki value for binding studies were then determined according to Cheng and Prusoff. […]

[1] = Traction reflex test (myorelaxant action); format: in vivo; settings: mouse, traction reflex versus mes, ip; mice, i.p.; Table 8; read-out: TI Tract. (ED50 traction reflex impairment / ED50 MES)
Experimental: (§1) NMR female mice (18-28 g) housed 5 per cage were used for the maximal electroshock (MES) and motor impairment tests. […] All compounds were dissolved in 0.9% saline.
(§2) The MES test was performed together with tests for myorelaxant action (traction reflex) and motor coordination (rotarod). For the traction reflex test mice were placed with their forepaws on a horizontal rod and were required to place all 4 paws on the wire within 10 seconds. To test ataxia (motor coordination) mice were placed on rotarod (5 rpm) and were required to remain on the rod for 1 minute. […] These tests were followed by MES (100 Hz, 0.5 second shock duration, 50 mA shock intensity, 0.9 ms impulse duration, Ugo Basile) applied through corneal electrodes. The presence of tonic convulsions was scored (tonic extension of hind paws with minimum angle to the body of 90°). The aim was to obtain ED50 s for all parameters scored (anticonvulsive activity and motor side effects) with use of the Litchfield Wilcoxon test for quantal dose responses. Division of the ED50 for side effects (ataxia or myorelaxation) by the ED50 for antagonism of electroshock convulsions was used as a therapeutic index (TI). […]

[2] = Rotarod test (motor coordination, ataxia); format: in vivo; settings: mouse, rotarod versus mes, ip; mice, i.p.; Table 8; read-out: TI Rot. (ED50 rotarod failure / ED50 MES)
Experimental: (§3) All compounds were dissolved in 0.9% saline.
(§4) The MES test was performed together with tests for myorelaxant action (traction reflex) and motor coordination (rotarod). For the traction reflex test mice were placed with their forepaws on a horizontal rod and were required to place all 4 paws on the wire within 10 seconds. To test ataxia (motor coordination) mice were placed on rotarod (5 rpm) and were required to remain on the rod for 1 minute. […] These tests were followed by MES (100 Hz, 0.5 second shock duration, 50 mA shock intensity, 0.9 ms impulse duration, Ugo Basile) applied through corneal electrodes. The presence of tonic convulsions was scored (tonic extension of hind paws with minimum angle to the body of 90°). The aim was to obtain ED50 s for all parameters scored (anticonvulsive activity and motor side effects) with use of the Litchfield Wilcoxon test for quantal dose responses. Division of the ED50 for side effects (ataxia or myorelaxation) by the ED50 for antagonism of electroshock convulsions was used as a therapeutic index (TI).
(§5) Pearson product moment correlation analysis (Sigma Stat, Jandel Scientific) was used to compare in vitro potencies and in vivo anticonvulsant activity.

[3] = i.p.; Table 8
NMDA receptor = assay: [3H]-(+)-MK-801 receptor binding to rat cortical membranes; settings: read-out: [3H]MK-801 IC50, [3H]-(+)-MK-801 5 nM, Table 7
Experimental: Male Sprague-Dawley rats (200-250 g) were decapitated and their brains were removed rapidly. The cortex was dissected and homogenized in 20 volumes of ice-cold 0.32 M sucrose using a glass-Teflon homogenizer. The homogenate was centrifuged at 1000×g for 10 minutes. The pellet was discarded and the supernatant centrifuged at 20,000×g for 20 minutes. The resulting pellet was re-suspended in 20 volumes of distilled water and centrifuged for 20 minutes at 8000×g. Then the supernatant and the buffy coat were centrifuged three times (48,000×g for 20 minutes) in the presence of 50 mM Tris-HCl, pH 8.0. All centrifugation steps were carried out at 4° C. After resuspension in 5 volumes of 50 mM Tris-HCl, pH 8.0 the membrane suspension was frozen rapidly at -80° C. On the day of assay the membranes were thawed and washed four times by resuspension in 50 mM Tris-HCl, pH 8.0 and centrifugation at 48,000×g for 20 minutes. The final pellet was suspended in assay buffer. The amount of protein in the final membrane preparation was determined according to the method of Lowry with some modifications. The final protein concentration used for our studies was between 250-500 μg/ml.
Membranes were re-suspended and incubated in 50 mM Tris-HCl, pH 8.0. […] Incubations were terminated using a Millipore filter system. The samples were rinsed three times with 2.5 ml ice cold assay buffer over glass fiber filters obtained from Schleicher & Schuell under a constant vacuum. Filtration was performed as rapidly as possible. Following separation and rinse, the filters were placed into scintillation liquid (5 ml; Ultima Gold) and radioactivity retained on the filters was determined with a conventional liquid scintillation counter (Hewlett Packard, Liquid Scintillation Analyser).
IC50 s in patch clamp, excitotoxicity, and binding studies were calculated according to the four parameter alogistic equation using the Grafit computer program (Erithacus Software, England). Ki value for binding studies were then determined according to Cheng and Prusoff. Binding values presented are means ±SEM of 3-5 determinations (each performed in duplicate).

[4] = Solubility (analytical certificates); format: physicochemical
[5] = test system: MES-induced convulsions in mice; assay: Anticonvulsive activity: maximal electroshock (MES) test; format: in vivo; settings: i.p., Table 8, 30 min
Experimental: as §1, §4, §5

traction reflex in mice = assay: Traction reflex test (myorelaxant action); format: in vivo; settings: i.p., Table 8
Experimental: as §1, §2

[6] = test system: rotarod performance in mice; assay: Rotarod test (motor coordination, ataxia); format: in vivo; settings: i.p., Table 8
Experimental: as §3, §4, §5

| Structure (SMILES) | neuroprotection in vitro (cortical neurones) | selectivity ratio [1] | selectivity ratio [2] | Min Lethality [3] | pIC50 (NMDA receptor) | Solubility [4] | MES ED50 [5] | TI Tract. (ED50 traction reflex impairment / ED50 MES) (traction reflex in mice) | TI Rot. (ED50 rotarod failure / ED50 MES) [6] |
| --- | --- | --- | --- | --- | --- | --- | --- | --- | --- |
| CC1(C)CC(C)(C)CC(C)(N)C1 [Mrz 2/579, 1-amino-1,3,3,5,5-pentamethylcyclohexane] | most potent | 2.9 | 5 | 108 mg/kg | – | – | – | – | – |
| CC1CC(C)CC(C)(N)C1 (stereo not shown) [Mrz 2/616, 1-amino-1,3,5-trimethylcyclohexane] | – | 1 | 1.4 | > 50 mg/kg | 3.82 | soluble in water, chloroform | – | – | – |
| CC1(C)CCCC(C)(N)C1 (stereo not shown) [Mrz 2/621] | – | – | – | > 60 mg/kg | – | – | 36.9 mg/kg i.p. | 1.8 | 1.5 |
| CC1(C)CC(C)(C)CC(C)(N2CCCC2)C1.Cl [MRZ 2/705, N-(1,3,3,5,5-Pentamethylcyclohexyl) pyrrolidine hydrochloride] | – | – | – | > 50 mg/kg | – | – | – | 3.9 | 5.4 |
